Laboratory results as given in patent publication US20080249176A1, “Methods and Compositions for the Treatment of Myocardial Conditions” (priority 2004, published 2008).

How the values were obtained:
Na^+—K^+ pump = experiment: Whole-cell patch clamp measurement of Na+-K+ pump current (Ip) in isolated cardiac myocytes; format: cell-based, rabbit
From the text: The whole-cell patch clamp technique (Hamill et al, 1981; Buhagier et al, 2004; Hansen et al, 2002) was used to examine the effect of β3 adrenoceptor stimulation on the Na^+—K^+ pump in isolated cardiac myocytes.
With the whole-cell patch clamp technique myocytes are suspended in a tissue bath mounted on the stage of an inverted microscope. A fine glass pipette is attached to the cell membrane and gentle suction applied to rupture the membrane patch directly under the tip of the glass pipette. This allows the intracellular compartment of the myocyte to be perfused with solution contained in the patch pipette. It also allows access of drugs and compounds to the intracellular compartment. Control of the composition of the extracellular solution in the tissue bath is achievable. The technique also allows control of membrane voltage and measurement of total membrane current.
The Na^+—K^+ pump's 3Na^+:2K^+ exchange ratio generates a current (Ip) that can be measured as the shift in holding current of the patch-clamped myocyte that is induced by pump blockade with 100 μM ouabain.
In the whole-cell configuration the bath was perfused with modified Tyrode's solution which contained (in mmol/L) NaCl 140; KCl 5.6; CaCl2 2.16; MgCl2 1; NaH2PO4 0.44; glucose 10 and Na-glutamate 9; N-2-hydroxyethyl piperazine-N′-2-[…] (HEPES) 10. The solution was titrated to a pH of 7.40±0.01 at 35° C. with NaOH.
For measurement of Ip the system was switched to a superfusate that usually was identical to the modified Tyrode's solution except that it was nominally Ca^2+-free and contained 0.2 mmol/L CdCl2 and 2 mmol/L BaCl2.
Wide-tipped patch pipettes (4-5 μm) were filled with solutions containing (in mmol/L) HEPES 5; MgATP 2; ethylene glycol-bis(β-aminoethyl ether)-N,N,N′,N′-tetraacetic acid (EGTA) 5; KCl 70 mmol/L. Osmotic balance was maintained with 80 mmol/L tetramethylammonium chloride (TMA-Cl). The solutions were titrated to a pH of 7.05±0.01 at 35° C. with 1 mmol/L TMA-OH. Ip was identified at a holding potential of −40 mV as the shift in holding current induced by Na^+—K^+ pump blockade with 100 μmol/L ouabain 10-15 minutes after the whole-cell configuration had been established. […] Details of patch pipette characteristics and equipment and criteria for defining Ip have been reported previously (Buhagiar et al, 1999).
The whole-cell patch clamp technique was similar to that described above except that extracellular Na^+ was eliminated (NaCl was replaced with N-methyl-D-glucamine (NMG.Cl)) to rule out any possible influx of Na^+ across the cell membrane.

[1] = tested on: model of ischaemic cardiomyopathy with severe heart failure induced by repeated coronary microembolisation in sheep; experiment: Sheep heart failure model, left ventricular end systolic pressure-volume relationship (ESPVR); format: in vivo; conditions: intravenous infusion, increasing doses, mean of 3 sheep, FIG. 6
Description: To examine the effect of acute activation of the β3-receptor we used a model of ischaemic cardiomyopathy with severe heart failure induced by repeated coronary microembolisation in sheep (Huang, Y et al., Am J Physiol 286: H2141-50, 2004). The model is stable and reflects the human condition well (Huang et al, 2004).
BRL 37344 was administered by intravenous infusion over a period of 8 min, starting with the lowest dose of the protocol. After an additional 5 min pressure-volume relationships were determined as described (Huang et al., 2004). The procedure was then repeated in an identical fashion using a larger dose of BRL 37344. The left ventricular end systolic pressure-volume relationship (ESPVR) was used as an index of cardiac performance. ESPVR is relatively independent of confounding factors such as pre- and after-load and heart rate, and is widely accepted as a good index of left ventricular function.
Results are shown in FIG. 6, both before and after induction of heart failure. The independent variable on the abscissa indicates the dose in microgram BRL 37344 per kg weight of the sheep. Note the logarithmic increment in dose. The mean of ESPVR measured in 3 different sheep before and after induction of severe heart failure is shown on the ordinate. […]

PKA = conditions: H-89 0.5 μM; cited from earlier work

With `O=C(Nc1ncnc2c1ncn2[C@@H]1O[C@@H]2COP(=O)(O)OC2C1O)c1ccccc1` (stereo in doubt) [6-Bnz-cAMP] the “Effect on Ip” value (Na^+—K^+ pump; 100 μM 6-Bnz-cAMP in patch pipette solution, NA-free control superfusate, FIG. 5) was “significant decrease in Ip”.
With `C[C@H](Cc1ccc(OCC(=O)O)cc1)NC[C@H](O)c1cccc(Cl)c1` [BRL 37344] the “BRL 37344-induced stimulation of the Na,K-pump in the absence of extracellular Na^+” value (Na^+—K^+ pump; 10 nM BRL 37344, NaCl replaced by NMG.Cl, FIG. 3) was “persisted in the absence of extracellular Na^+”, the “Na,K-pump activity at 100 nM in comparison with activity observed with 10 nM” value (Na^+—K^+ pump; 100 nM vs 10 nM BRL 37344, pipette Na 10 mM, FIG. 1) was “apparent lower activity” and the “Na^+—K^+ pump current (Ip) in comparison with normal controls” value (Na^+—K^+ pump; BRL 37344 1 nM, 10 nM and 100 nM, pipette Na 10 mM, FIG. 1) was “significantly stimulates”. For the same molecule, the “Slope of linear regression of log dose vs. ESPVR” value ([1]; normal sheep (before induction of heart failure)) was “trend towards a negative slope” and the “Slope of linear regression of log dose vs. ESPVR” value ([1]; sheep after induction of severe heart failure) was “significantly positive”.
In the case of `Cl.Cl.O=S(=O)(NCCNCC=Cc1ccc(Br)cc1)c1cccc2cnccc12` [H-89, N-[2-(p-Bromocinnamylamino)ethyl]-5-isoquinolinesulfonamide dihydrochloride], the “Effect on 6-Bnz-cAMP-induced decrease in Ip” value (Na^+—K^+ pump; H-89 0.5 μM + 6-Bnz-cAMP 100 μM in pipette solution, FIG. 5) is listed as “reversed the 6-Bnz-cAMP-induced decrease in Ip” and the “Effect on PKA-mediated Na^+—K^+ pump inhibition” value (PKA) is listed as “abolishes PKA-mediated Na^+—K^+ pump inhibition”.
For `NC[C@H](O)c1ccc(O)c(O)c1` [NA, noradrenaline], the “NA-induced increase in Ip with β1/β2 blockade” value (Na^+—K^+ pump; 10 nM NA + 1 μM nadolol, FIG. 4) was “persisted in the presence of nadolol”, the “NA-induced increase in Ip with PKA blockade” value (Na^+—K^+ pump; 10 nM NA, 0.5 μM H-89 in patch pipette solution, FIG. 4) was “persisted with PKA blockade” and the “Effect on Ip” value (Na^+—K^+ pump; 10 nM NA, FIG. 4) was “induced an increase in Ip”.
With `CC(C)(C)NCC(O)COc1cccc2c1CC(O)C(O)C2` (stereo not drawn) [nadolol] the “Na,K-pump activity with nadolol in the presence of 100 nM BRL 37344 compared to 100 nM BRL 37344 alone” value (Na^+—K^+ pump; nadolol 1 μM + 100 nM BRL 37344 in superfusate, FIG. 2) was “increased, although not quite significantly”.
